Test results reported in the NIST ThermoML archive (doi:10.1016/j.fluid.2017.09.014).
± gives the expanded uncertainty stated by the source.

Test: xn = mol fraction of the nth substance listed
Details: Vibrating tube method

O=S=O [sulfur dioxide] + O=C=O
mass density (298.1 K, 34441 kPa, Liquid, x2 = 0.9478): 1013.3 ± 0.6 kg/m3
mass density (298.1 K, 35077 kPa, Liquid, x2 = 0.9478): 1015.5 ± 0.4 kg/m3
mass density (298.1 K, 35971 kPa, Liquid, x2 = 0.9478): 1018.4 ± 0.4 kg/m3
mass density (298.1 K, 36493 kPa, Liquid, x2 = 0.9478): 1020.2 ± 0.6 kg/m3
mass density (298.1 K, 37078 kPa, Liquid, x2 = 0.9478): 1022 ± 0.4 kg/m3
mass density (298.11 K, 7503 kPa, Liquid, x2 = 0.9478): 829.8 ± 1.6 kg/m3
mass density (298.11 K, 8006 kPa, Liquid, x2 = 0.9478): 838.7 ± 1.6 kg/m3
mass density (298.11 K, 8501 kPa, Liquid, x2 = 0.9478): 846.7 ± 1.4 kg/m3
mass density (298.11 K, 10505 kPa, Liquid, x2 = 0.9478): 872.1 ± 1.2 kg/m3
mass density (298.11 K, 11004 kPa, Liquid, x2 = 0.9478): 877.7 ± 1.2 kg/m3
mass density (298.11 K, 13010 kPa, Liquid, x2 = 0.9478): 897.8 ± 1 kg/m3
mass density (298.11 K, 13500 kPa, Liquid, x2 = 0.9478): 902.3 ± 1 kg/m3
mass density (298.11 K, 15011 kPa, Liquid, x2 = 0.9478): 915.2 ± 0.8 kg/m3
mass density (298.11 K, 15500 kPa, Liquid, x2 = 0.9478): 919.1 ± 0.8 kg/m3
mass density (298.11 K, 16016 kPa, Liquid, x2 = 0.9478): 923 ± 0.8 kg/m3
mass density (298.11 K, 16534 kPa, Liquid, x2 = 0.9478): 926.8 ± 0.8 kg/m3
mass density (298.11 K, 17024 kPa, Liquid, x2 = 0.9478): 930.2 ± 0.8 kg/m3
mass density (298.11 K, 17492 kPa, Liquid, x2 = 0.9478): 933.3 ± 0.8 kg/m3
mass density (298.11 K, 17978 kPa, Liquid, x2 = 0.9478): 936.5 ± 0.8 kg/m3
mass density (298.11 K, 18527 kPa, Liquid, x2 = 0.9478): 939.8 ± 0.8 kg/m3
mass density (298.11 K, 19025 kPa, Liquid, x2 = 0.9478): 942.9 ± 0.8 kg/m3
mass density (298.11 K, 19477 kPa, Liquid, x2 = 0.9478): 945.6 ± 0.8 kg/m3
mass density (298.11 K, 20051 kPa, Liquid, x2 = 0.9478): 948.9 ± 0.8 kg/m3
mass density (298.11 K, 20492 kPa, Liquid, x2 = 0.9478): 951.5 ± 0.8 kg/m3
mass density (298.11 K, 21501 kPa, Liquid, x2 = 0.9478): 957 ± 0.6 kg/m3
mass density (298.11 K, 23041 kPa, Liquid, x2 = 0.9478): 965.2 ± 0.6 kg/m3
mass density (298.11 K, 28987 kPa, Liquid, x2 = 0.9478): 993.1 ± 0.6 kg/m3
mass density (298.11 K, 29543 kPa, Liquid, x2 = 0.9478): 994.8 ± 0.6 kg/m3
mass density (298.11 K, 30013 kPa, Liquid, x2 = 0.9478): 996.8 ± 0.6 kg/m3
mass density (298.11 K, 30505 kPa, Liquid, x2 = 0.9478): 998.9 ± 0.6 kg/m3
mass density (298.11 K, 30997 kPa, Liquid, x2 = 0.9478): 1000.7 ± 0.4 kg/m3
mass density (298.11 K, 31516 kPa, Liquid, x2 = 0.9478): 1002.6 ± 0.4 kg/m3
mass density (298.11 K, 33949 kPa, Liquid, x2 = 0.9478): 1011.6 ± 0.4 kg/m3
mass density (298.11 K, 35494 kPa, Liquid, x2 = 0.9478): 1016.9 ± 0.4 kg/m3
mass density (298.11 K, 37574 kPa, Liquid, x2 = 0.9478): 1023.6 ± 0.4 kg/m3
mass density (298.11 K, 37960 kPa, Liquid, x2 = 0.9478): 1024.8 ± 0.4 kg/m3
mass density (298.11 K, 38545 kPa, Liquid, x2 = 0.9478): 1026.6 ± 0.6 kg/m3
mass density (298.11 K, 38913 kPa, Liquid, x2 = 0.9478): 1027.8 ± 0.6 kg/m3
mass density (298.11 K, 39519 kPa, Liquid, x2 = 0.9478): 1029.5 ± 0.4 kg/m3
mass density (298.11 K, 40060 kPa, Liquid, x2 = 0.9478): 1031.1 ± 0.6 kg/m3
mass density (298.12 K, 9508 kPa, Liquid, x2 = 0.9478): 860.5 ± 1.2 kg/m3
mass density (298.12 K, 10039 kPa, Liquid, x2 = 0.9478): 866.6 ± 1.2 kg/m3
mass density (298.12 K, 11504 kPa, Liquid, x2 = 0.9478): 882.9 ± 1 kg/m3
mass density (298.12 K, 12000 kPa, Liquid, x2 = 0.9478): 887.9 ± 1 kg/m3
mass density (298.12 K, 12503 kPa, Liquid, x2 = 0.9478): 892.9 ± 1 kg/m3
mass density (298.12 K, 14006 kPa, Liquid, x2 = 0.9478): 906.7 ± 1 kg/m3
mass density (298.12 K, 14500 kPa, Liquid, x2 = 0.9478): 910.9 ± 1 kg/m3
mass density (298.12 K, 40411 kPa, Liquid, x2 = 0.9478): 1032.1 ± 0.4 kg/m3
mass density (322.39 K, 392 kPa, Gas, x2 = 0.9503): 7 ± 0.2 kg/m3
mass density (322.39 K, 1252 kPa, Gas, x2 = 0.9503): 22.2 ± 0.2 kg/m3
mass density (322.39 K, 1707 kPa, Gas, x2 = 0.9503): 31.7 ± 0.2 kg/m3
mass density (322.39 K, 2008 kPa, Gas, x2 = 0.9503): 37 ± 0.2 kg/m3
mass density (322.39 K, 3512 kPa, Gas, x2 = 0.9503): 70.9 ± 0.2 kg/m3
mass density (322.39 K, 4009 kPa, Gas, x2 = 0.9503): 82.8 ± 0.4 kg/m3
mass density (322.39 K, 4519 kPa, Gas, x2 = 0.9503): 96.9 ± 0.4 kg/m3
mass density (322.39 K, 5017 kPa, Gas, x2 = 0.9503): 111.5 ± 0.4 kg/m3
mass density (322.39 K, 5528 kPa, Gas, x2 = 0.9503): 127.9 ± 0.4 kg/m3
mass density (322.39 K, 6019 kPa, Gas, x2 = 0.9503): 145.7 ± 0.4 kg/m3
mass density (322.39 K, 7009 kPa, Fluid (supercritical or subcritical phases), x2 = 0.9503): 189.5 ± 0.8 kg/m3
mass density (322.39 K, 7504 kPa, Fluid (supercritical or subcritical phases), x2 = 0.9503): 218.4 ± 1 kg/m3
mass density (322.4 K, 749 kPa, Gas, x2 = 0.9503): 13.6 ± 0.2 kg/m3
mass density (322.4 K, 1002 kPa, Gas, x2 = 0.9503): 17.9 ± 0.2 kg/m3
mass density (322.4 K, 1509 kPa, Gas, x2 = 0.9503): 27.5 ± 0.2 kg/m3
mass density (322.4 K, 2511 kPa, Gas, x2 = 0.9503): 48.1 ± 0.2 kg/m3
mass density (322.4 K, 3008 kPa, Gas, x2 = 0.9503): 58.8 ± 0.2 kg/m3
mass density (322.41 K, 6514 kPa, Fluid (supercritical or subcritical phases), x2 = 0.9503): 166.3 ± 0.6 kg/m3
mass density (322.41 K, 8037 kPa, Fluid (supercritical or subcritical phases), x2 = 0.9503): 254.6 ± 1.5 kg/m3
mass density (322.41 K, 8521 kPa, Fluid (supercritical or subcritical phases), x2 = 0.9503): 307.2 ± 2.3 kg/m3
mass density (322.41 K, 9006 kPa, Fluid (supercritical or subcritical phases), x2 = 0.9503): 371 ± 3.9 kg/m3
mass density (322.45 K, 9501 kPa, Fluid (supercritical or subcritical phases), x2 = 0.9503): 460.8 ± 5.1 kg/m3
mass density (322.46 K, 9992 kPa, Fluid (supercritical or subcritical phases), x2 = 0.9503): 538 ± 4.1 kg/m3
mass density (322.46 K, 30511 kPa, Fluid (supercritical or subcritical phases), x2 = 0.9503): 905.8 ± 0.6 kg/m3
mass density (322.46 K, 34988 kPa, Fluid (supercritical or subcritical phases), x2 = 0.9503): 930.2 ± 0.6 kg/m3
mass density (322.46 K, 35500 kPa, Fluid (supercritical or subcritical phases), x2 = 0.9503): 933 ± 0.6 kg/m3
mass density (322.46 K, 36061 kPa, Fluid (supercritical or subcritical phases), x2 = 0.9503): 935.4 ± 0.6 kg/m3
mass density (322.46 K, 36509 kPa, Fluid (supercritical or subcritical phases), x2 = 0.9503): 937.7 ± 0.6 kg/m3
mass density (322.46 K, 37005 kPa, Fluid (supercritical or subcritical phases), x2 = 0.9503): 940.1 ± 0.6 kg/m3
mass density (322.46 K, 37561 kPa, Fluid (supercritical or subcritical phases), x2 = 0.9503): 942.4 ± 0.6 kg/m3
mass density (322.47 K, 10501 kPa, Fluid (supercritical or subcritical phases), x2 = 0.9503): 585 ± 5.5 kg/m3
mass density (322.47 K, 29929 kPa, Fluid (supercritical or subcritical phases), x2 = 0.9503): 902.4 ± 0.6 kg/m3
mass density (322.47 K, 31027 kPa, Fluid (supercritical or subcritical phases), x2 = 0.9503): 908.9 ± 0.6 kg/m3
mass density (322.47 K, 31517 kPa, Fluid (supercritical or subcritical phases), x2 = 0.9503): 912 ± 0.6 kg/m3
mass density (322.47 K, 32536 kPa, Fluid (supercritical or subcritical phases), x2 = 0.9503): 917.5 ± 0.6 kg/m3
mass density (322.47 K, 33070 kPa, Fluid (supercritical or subcritical phases), x2 = 0.9503): 920.6 ± 0.6 kg/m3
mass density (322.47 K, 33539 kPa, Fluid (supercritical or subcritical phases), x2 = 0.9503): 923.2 ± 0.6 kg/m3
mass density (322.47 K, 34062 kPa, Fluid (supercritical or subcritical phases), x2 = 0.9503): 925.5 ± 0.6 kg/m3
mass density (322.47 K, 34511 kPa, Fluid (supercritical or subcritical phases), x2 = 0.9503): 928 ± 0.6 kg/m3
mass density (322.47 K, 38091 kPa, Fluid (supercritical or subcritical phases), x2 = 0.9503): 945 ± 0.6 kg/m3
mass density (322.47 K, 38434 kPa, Fluid (supercritical or subcritical phases), x2 = 0.9503): 946.6 ± 0.6 kg/m3
mass density (322.47 K, 39200 kPa, Fluid (supercritical or subcritical phases), x2 = 0.9503): 950 ± 0.6 kg/m3
mass density (322.47 K, 40947 kPa, Fluid (supercritical or subcritical phases), x2 = 0.9503): 956.3 ± 0.6 kg/m3
mass density (322.48 K, 20496 kPa, Fluid (supercritical or subcritical phases), x2 = 0.9503): 829.2 ± 1.1 kg/m3
mass density (322.48 K, 23049 kPa, Fluid (supercritical or subcritical phases), x2 = 0.9503): 853.3 ± 0.9 kg/m3
mass density (322.48 K, 25500 kPa, Fluid (supercritical or subcritical phases), x2 = 0.9503): 871.4 ± 0.8 kg/m3
mass density (322.48 K, 27026 kPa, Fluid (supercritical or subcritical phases), x2 = 0.9503): 882.9 ± 0.8 kg/m3
mass density (322.48 K, 28501 kPa, Fluid (supercritical or subcritical phases), x2 = 0.9503): 892.7 ± 0.8 kg/m3
mass density (322.48 K, 32039 kPa, Fluid (supercritical or subcritical phases), x2 = 0.9503): 914.6 ± 0.6 kg/m3
mass density (322.48 K, 39641 kPa, Fluid (supercritical or subcritical phases), x2 = 0.9503): 951.7 ± 0.6 kg/m3
mass density (322.48 K, 40153 kPa, Fluid (supercritical or subcritical phases), x2 = 0.9503): 953.9 ± 0.6 kg/m3
mass density (322.48 K, 40902 kPa, Fluid (supercritical or subcritical phases), x2 = 0.9503): 956.7 ± 0.6 kg/m3
mass density (322.49 K, 11003 kPa, Fluid (supercritical or subcritical phases), x2 = 0.9503): 621.1 ± 4.3 kg/m3
mass density (322.49 K, 18008 kPa, Fluid (supercritical or subcritical phases), x2 = 0.9503): 800.3 ± 1.3 kg/m3
mass density (322.49 K, 19008 kPa, Fluid (supercritical or subcritical phases), x2 = 0.9503): 812.8 ± 1.1 kg/m3
mass density (322.49 K, 20012 kPa, Fluid (supercritical or subcritical phases), x2 = 0.9503): 824.3 ± 1.1 kg/m3
mass density (322.49 K, 21007 kPa, Fluid (supercritical or subcritical phases), x2 = 0.9503): 834.7 ± 1.1 kg/m3
mass density (322.49 K, 21533 kPa, Fluid (supercritical or subcritical phases), x2 = 0.9503): 839.7 ± 1.1 kg/m3
mass density (322.49 K, 22009 kPa, Fluid (supercritical or subcritical phases), x2 = 0.9503): 843.9 ± 0.9 kg/m3
mass density (322.49 K, 22496 kPa, Fluid (supercritical or subcritical phases), x2 = 0.9503): 848.2 ± 0.9 kg/m3
mass density (322.49 K, 23500 kPa, Fluid (supercritical or subcritical phases), x2 = 0.9503): 856.5 ± 0.9 kg/m3
mass density (322.49 K, 24003 kPa, Fluid (supercritical or subcritical phases), x2 = 0.9503): 860.4 ± 0.9 kg/m3
